Experiment [1] relates to CD3/CD28 induced IL-2 in human T-Blasts. Nature of the experiment: T-Blasts CD3/CD28 induced IL-2 assay. The class given is cell-based. To be noted: read-out: CD3/CD28-stimulated IL2 in T-blasts EC50. On the procedure: T-Blasts CD3/CD28 Induced IL-2 Assay
Human T-Blasts are generated using PHA following standard protocols. T-Blasts are freeze aliquoted and vials thawed as required. […] Seed 2×10^5/100 μL cell suspension per well in flat bottomed 96 well plate. Compound dilutions are prepared from 100% DMSO stocks. A total of 8 serial dilutions are made (1/3 in 100% DMSO). Compounds are diluted 1/50 in growth medium to prepare 4× stocks of each tested concentration. 50 μL from each 4× stock concentration is added to the 100 μL cell suspension and incubated for 30 minutes prior stimulus addition. A 4× stimulus stock is prepared using anti-CD3+anti-CD28 antibodies. Antibody mix is added to the cell/compounds suspension in 50 μL at 5 μg/mL final concentration. Compounds are tested in duplicates. Plates are transferred to 37° C./CO2 incubator for 24 hours. After incubation 130 μL of supernatant is collected for IL-2 determination while MTT toxicity analysis is performed on remaining cells/medium.

In a further experiment the target is T1, PKCθ (Homo sapiens, UniProt Q04759).
T1 construct: His6; purchased Millipore; host or cells: baculovirus in Sf21 cells
T1 sequence (Q04759 whole entry): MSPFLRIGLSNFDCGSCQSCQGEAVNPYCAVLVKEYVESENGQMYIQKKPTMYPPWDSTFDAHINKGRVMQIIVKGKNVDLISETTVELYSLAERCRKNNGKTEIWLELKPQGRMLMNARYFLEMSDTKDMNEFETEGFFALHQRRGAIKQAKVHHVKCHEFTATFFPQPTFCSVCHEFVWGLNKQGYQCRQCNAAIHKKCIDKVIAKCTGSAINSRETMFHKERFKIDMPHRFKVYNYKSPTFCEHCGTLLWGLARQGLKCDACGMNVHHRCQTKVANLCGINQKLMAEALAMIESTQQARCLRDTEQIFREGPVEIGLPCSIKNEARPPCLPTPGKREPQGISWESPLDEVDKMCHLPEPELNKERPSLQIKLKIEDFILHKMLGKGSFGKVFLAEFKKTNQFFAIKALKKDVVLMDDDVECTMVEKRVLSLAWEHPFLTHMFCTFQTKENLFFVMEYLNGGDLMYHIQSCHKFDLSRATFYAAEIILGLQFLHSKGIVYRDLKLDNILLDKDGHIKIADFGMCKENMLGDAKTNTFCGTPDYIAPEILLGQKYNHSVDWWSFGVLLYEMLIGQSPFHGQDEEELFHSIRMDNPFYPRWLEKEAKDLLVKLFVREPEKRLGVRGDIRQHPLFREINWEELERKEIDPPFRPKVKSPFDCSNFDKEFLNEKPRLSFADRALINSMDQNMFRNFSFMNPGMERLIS
Nature of the experiment: In vitro enzyme assay (time-resolved fluorescence kinase assay), PKCθ, 100 μM ATP. The class given is biochemical. On the procedure:
(§1) PKC kinase activity was assayed by time-resolved fluorescence in vitro kinase assay. Unless otherwise indicated, all reagents used for enzyme assays were obtained from Sigma. Specifically, 5 μL N- or C-terminal His6-tagged, recombinant, human PKC, expressed by baculovirus in Sf21 cells (Millipore) was mixed with 5 μL inhibitor (various concentrations, 5% final DMSO), 5 μL Bio-cdc peptide (Biotin-Ahx-[…], 2 μM final concentration, New England Peptide) and 5 μL of ATP (100 μM or 1000 μM final concentration) in 1× reaction buffer, 20 μL final volume.
(§2) Following a sixty minute incubation at room temperature, the reaction was quenched with 5 μL of 0.5 M EDTA pH 7.5.
(§3) Background counts from a minus enzyme control is subtracted from all data. Data (after background correction) are converted to percent activity by dividing by the signal obtained from PKC without drug sample.

A further experiment deals with T2, PKCα (Homo sapiens, UniProt P17252).
T2 construct: His6; purchased Millipore; host or cells: baculovirus in Sf21 cells
Nature of the experiment: In vitro enzyme assay (time-resolved fluorescence kinase assay), PKCα, 100 μM ATP. It counts as biochemical. To be noted: 100 μM ATP; read-out: PKCα enzyme IC50. Here is the method:
as §1, §2, §3

From US9115151B2, “Substituted 2,10-dihydro-9-oxa-1,2,4A-triazaphenanthren-3-ones and uses thereof” (AbbVie Inc., priority 2012, dated 2015) come the findings set out here.

Bounds are passed on as bounds.

`Cc1ccc(F)c(-c2cc3c(cc2NC2CNC2)N2C(=NNC(=O)C2C)CO3)c1` (racemic) [Example 31]: in experiment [1], the EC50 fell in the range of 250 to 1000 nM. Also, the IC50 was below 250 nM on PKCθ and 1000 to 10000 nM at PKCα.
On the same counts, the results for `Cc1cc(-c2cc3c(cc2NC2CNC2)N2C(=NNC(=O)C2C)CO3)ccc1F` (racemic) [Example 32] are 250 to 1000 nM, below 250 nM and 1000 to 10000 nM.
As for `Cc1cc(F)cc(-c2cc3c(cc2NC2CNC2)N2C(=NNC(=O)C2C)CO3)c1` (racemic) [Example 33], in experiment [1], the EC50 lay within 250 to 1000 nM. For the same compound, the values for the IC50 at PKCθ and on PKCα were below 250 nM and 1000 to 10000 nM, respectively.
Taken in the same sequence, the figures for `COc1ccccc1-c1cc2c(cc1NC1CNC1)N1C(=NNC(=O)C1C)CO2` (racemic) [Example 34] were 250 to 1000 nM, below 250 nM and 1000 to 10000 nM.
On the same counts, the results for `COc1ccc2cc(-c3cc4c(cc3NC3CNC3)N3C(=NNC(=O)C3C)CO4)ccc2c1` (racemic) [Example 35] are below 250 nM, below 250 nM and 1000 to 10000 nM.
On the same counts, the results for `CC1C(=O)NN=C2COc3cc(-c4ccc5ccccc5c4)c(NC4CNC4)cc3N21` (racemic) [Example 36] are below 250 nM, below 250 nM and 1000 to 10000 nM.
In the case of `CC1C(=O)NN=C2COc3cc(-c4ccc5scnc5c4)c(NC4CNC4)cc3N21` (racemic) [Example 37], the EC50 in experiment [1] is below 250 nM. Also, the IC50 against PKCθ was below 250 nM; on PKCα, 1000 to 10000 nM.
Consider `CC1C(=O)NN=C2COc3cc(-c4ccc5ncsc5c4)c(NC4CNC4)cc3N21` (racemic) [Example 38], for which the EC50 in experiment [1] lay within 250 to 1000 nM. For the same compound, the half-maximal inhibitory concentration (IC50) at PKCθ was below 250 nM; on PKCα, 1000 to 10000 nM.
Taken in the same sequence, the figures for `CC1C(=O)NN=C2COc3cc(-c4cccc(C#N)c4)c(NC4CNC4)cc3N21` (racemic) [Example 39] were 250 to 1000 nM, below 250 nM and 1000 to 10000 nM.
Taken in the same sequence, the figures for `CC1C(=O)NN=C2COc3cc(-c4cccc(COC(C)(C)C)c4)c(NC4CNC4)cc3N21` (racemic) [Example 40] were 250 to 1000 nM, 250 to 1000 nM and 1000 to 10000 nM.
Regarding `CC1C(=O)NN=C2COc3cc(-c4ccc(C#N)cc4)c(NC4CNC4)cc3N21` (racemic) [Example 41], in experiment [1], the EC50 was in the range of 250 to 1000 nM. The IC50 fell in the range of 250 to 1000 nM against PKCθ and 1000 to 10000 nM on PKCα.
As for `CC1C(=O)NN=C2COc3cc(-c4ccccc4F)c(NC4CNC4)cc3N21` (racemic) [Example 42], the EC50 in experiment [1] was below 250 nM. The IC50 against PKCθ is below 250 nM; on PKCα, 1000 to 10000 nM.
Turning to `CC1C(=O)NN=C2COc3cc(-c4ccc(Cl)cc4Cl)c(NC4CNC4)cc3N21` (racemic) [Example 43], in experiment [1], the EC50 is below 250 nM. In addition, the IC50 was below 250 nM on PKCθ and 1000 to 10000 nM on PKCα.
Consider `CC1C(=O)NN=C2COc3cc(-c4ccccc4Cl)c(NC4CNC4)cc3N21` (racemic) [Example 44], for which the EC50 in experiment [1] is below 250 nM. The IC50 against PKCθ is below 250 nM; at PKCα, 1000 to 10000 nM.
On to `CC1C(=O)NN=C2COc3cc(-c4ccc(Cl)cc4)c(NC4CNC4)cc3N21` (racemic) [Example 45], for which the EC50 in experiment [1] is below 250 nM. Further, the IC50 against PKCθ is below 250 nM; at PKCα, 1000 to 10000 nM.
On to `CC1C(=O)NN=C2COc3cc(-c4cccc(F)c4)c(NC4CNC4)cc3N21` (racemic) [Example 46], for which the EC50 in experiment [1] is below 250 nM. The values for the IC50 on PKCθ and at PKCα were below 250 nM and 1000 to 10000 nM, respectively.
Turning to `CC1C(=O)NN=C2COc3cc(-c4ccc(F)cc4F)c(NC4CNC4)cc3N21` (racemic) [Example 47], in experiment [1], the EC50 was below 250 nM. Besides, the IC50 is below 250 nM against PKCθ and 1000 to 10000 nM on PKCα.
For `Cc1ccccc1-c1cc2c(cc1NC1CNC1)N1C(=NNC(=O)C1C)CO2` (racemic) [Example 48], the EC50 in experiment [1] was below 250 nM. The IC50 is below 250 nM against PKCθ and 1000 to 10000 nM at PKCα.
As for `CC1C(=O)NN=C2COc3cc(C4CC4)c(NC4CNC4)cc3N21` (racemic) [Example 49], in experiment [1], the EC50 was below 250 nM. Further, the figures for the IC50 at PKCθ and on PKCα were below 250 nM and 1000 to 10000 nM, respectively.
On to `CC1C(=O)NN=C2COc3cc(-c4ccc(F)cc4)c(NC4CNC4)cc3N21` (racemic) [Example 50], for which the EC50 in experiment [1] is below 250 nM. The IC50 is below 250 nM against PKCθ and 1000 to 10000 nM on PKCα.
In the case of `CC1C(=O)NN=C2COc3cc(-c4ccccc4)c(NC4CNC4)cc3N21` (racemic) [Example 51], in experiment [1], the EC50 lay within 250 to 1000 nM. Further, the IC50 was below 250 nM against PKCθ and 1000 to 10000 nM on PKCα.
On to `CC1C(=O)NN=C2COc3cc(-c4cccc5ccccc45)c(NC4CNC4)cc3N21` (racemic) [Example 52], for which, in experiment [1], the EC50 lay in the range of 250 to 1000 nM. In addition, the IC50 against PKCθ was below 250 nM; on PKCα, 1000 to 10000 nM.
Regarding `C[C@@H]1C(=O)NN=C2COc3cc(-c4ccccc4)c(NC4CNC4)cc3N21` (single isomer, unassigned) [Example 1-1, trifluoroacetic acid], the EC50 in experiment [1] was below 250 nM. Further, the results for the IC50 against PKCθ and at PKCα were below 250 nM and 1000 to 10000 nM, respectively.
Regarding `C[C@H]1C(=O)NN=C2COc3cc(-c4ccccc4)c(NC4CNC4)cc3N21` (single isomer, unassigned) [Example 1-2, trifluoroacetic acid], the EC50 in experiment [1] fell in the range of 1000 to 10000 nM. The results for the IC50 against PKCθ and on PKCα were 250 to 1000 nM and 1000 to 10000 nM, respectively.
On to `Cc1cc2c(cc1NC1CNC1)N1C(=NNC(=O)[C@H]1C)CO2` (single isomer, unassigned) [Example 54-1, trifluoroacetic acid], for which the EC50 in experiment [1] is 250 to 1000 nM. Further, the IC50 was below 250 nM against PKCθ and 1000 to 10000 nM on PKCα.
On the same counts, the results for `Cc1cc2c(cc1NC1CNC1)N1C(=NNC(=O)[C@@H]1C)CO2` (single isomer, unassigned) [Example 54-2, trifluoroacetic acid] are 1000 to 10000 nM, 250 to 1000 nM and 1000 to 10000 nM.
Taken in the same sequence, the figures for `C[C@H]1C(=O)NN=C2COc3cc(F)c(NC4CNC4)cc3N21` (single isomer, unassigned) [Example 56-1, trifluoroacetic acid] were 1000 to 10000 nM, 250 to 1000 nM and 1000 to 10000 nM.
`C[C@@H]1C(=O)NN=C2COc3cc(F)c(NC4CNC4)cc3N21` (single isomer, unassigned) [Example 56-2, trifluoroacetic acid]: in experiment [1], the EC50 is below 250 nM. Besides, the results for the IC50 on PKCθ and at PKCα were below 250 nM and 1000 to 10000 nM, respectively.
`CC(C)c1cc2c(cc1NC1CNC1)N1C(=NNC(=O)[C@H]1C)CO2` (single isomer, unassigned) [Example 57-1, trifluoroacetic acid]: the EC50 in experiment [1] was below 250 nM. Moreover, the figures for the IC50 at PKCθ and at PKCα were below 250 nM and 1000 to 10000 nM, respectively.
For `CC(C)c1cc2c(cc1NC1CNC1)N1C(=NNC(=O)[C@@H]1C)CO2` (single isomer, unassigned) [Example 57-2, trifluoroacetic acid], in experiment [1], the EC50 is 1000 to 10000 nM. Moreover, the IC50 was 250 to 1000 nM against PKCθ and 1000 to 10000 nM at PKCα.
